In assay [1] the test system is MDA-MB-231. Nature of the assay: Induction of HR DNA repair in human MDA-MB-231 cells assessed as decrease in RAD51 level at 4 uM incubated for 48 hrs by DAPI staining based immunofluorescence analysis. The format is functional, cell-based.
Assay [2] concerns MCF7. Nature of the assay: cells. The settings on record: Homo sapiens.
Assay [3] has as its system MDA-MB-231. Nature of the assay: Inhibition of colony formation in human MDA-MB-231 cells at 4 uM incubated for 10 days in presence of 1:1 of compound:Olaparib by crystal violet staining based assay. The format is functional, cell-based. The note with it: time 10.0 day.
In assay [4] the test system is MDA-MB-231. Nature of the assay: Antiproliferative activity against human MDA-MB-231 cells assessed as cell growth inhibition.
In assay [5] the test system is MDA-MB-231. Nature of the assay: Induction of HR DNA repair in human MDA-MB-231 cells xenografted in BALB/c nude mouse assessed as decrease in FOXM1 level at 50 mg/kg, po for 14 days in presence of 1:1 of compound:Olaparib by Western blot analysis. Type of assay: functional, organism-based. The settings on record: time 14.0 day. (In general: A xenograft is tissue or cells of one species grown in another, often human tumour cells in immunodeficient mice.)

Assay [6] concerns MDA-MB-231. Nature of the assay: Induction of apoptosis in human MDA-MB-231 cells assessed as increase in cleaved caspase-3 level at 4 uM incubated for 2 days in presence of 1:1 of compound:Olaparib by immunoblot analysis. Type of assay: functional, cell-based. The note with it: time 2.0 day. (In general: A western blot detects proteins with antibodies after separation by electrophoresis.)

Assay [7] deals with MCF7. Nature of the assay: Induction of apoptosis in human MCF7 cells assessed as increase in cleaved caspase-3 level at 4 uM incubated for 2 days in presence of 1:1 of compound:Olaparib by immunoblot analysis. The format is functional, cell-based. The note with it: time 2.0 day.
The test system of assay [8] is MCF7. Nature of the assay: Downregulation of Olaparib-induced PAR expression in human MCF7 cells at 4 uM incubated for 2 days by Western blot analysis. The format is functional, cell-based. The note with it: time 2.0 day.
The test system of assay [9] is MDA-MB-231. Put plainly: Induction of HR DNA repair in human MDA-MB-231 cells xenografted in BALB/c nude mouse assessed as decrease in BRCA1 level at 50 mg/kg, po for 14 days in presence of 1:1 of compound:Pazopanib by H and E staining based IHC analysis. The note with it: time 14.0 day. The format is functional, organism-based.
The test system of assay [10] is MDA-MB-231. Nature of the assay: Induction of cell cycle arrest at G2/M phase in human MDA-MB-231 cells at 4 uM by Annexin-V-FLUOS staining based flow cytometry. Type of assay: functional. On the technique in general: Flow cytometry measures light scatter and fluorescence of single cells or particles in a stream.
Assay [11] has as its system MDA-MB-231. Put plainly: cells. The settings on record: Homo sapiens.
Assay [12] deals with MCF7. Nature of the assay: Antimigratory activity in human MCF7 cells assessed as upregulation of E-cadherin level at 4 uM by DAPI staining based immunofluorescence analysis. The format is functional, cell-based.
Assay [13] relates to MDA-MB-231. Nature of the assay: Induction of cell cycle arrest at S phase in human MDA-MB-231 cells at 4 uM by Annexin-V-FLUOS staining based flow cytometry. The format is functional.
Assay [14] concerns MCF7. Put plainly: Induction of cell cycle arrest at G2/M phase in human MCF7 cells at 4 uM in presence of 1:1 of compound:Olaparib by Annexin-V-FLUOS staining based flow cytometry. The format is functional.
For assay [15], the system named is MCF7. Nature of the assay: Antimigratory activity in human MCF7 cells assessed as downregulation of MMP-2 level at 4 uM incubated for 2 days by immunoblot analysis. Type of assay: functional, cell-based. The note with it: time 2.0 day.
The subject of assay [16] is MDA-MB-231. Nature of the assay: Antimigratory activity in human MDA-MB-231 cells xenografted in BALB/c nude mouse assessed as downregulation of MMP2 level at 50 mg/kg, po for 14 days in presence of 1:1 of compound:Olaparib by H and E staining based IHC analysis. The format is functional, organism-based. The note with it: time 14.0 day.
The target of assay [17] is Vascular endothelial growth factor receptor 2 (Homo sapiens, UniProt P35968). The note with it: MDA-MB-231, dose 50.0 mg/kg, route po, time 14.0 day.
Sequence of Vascular endothelial growth factor receptor 2 (P35968 whole entry): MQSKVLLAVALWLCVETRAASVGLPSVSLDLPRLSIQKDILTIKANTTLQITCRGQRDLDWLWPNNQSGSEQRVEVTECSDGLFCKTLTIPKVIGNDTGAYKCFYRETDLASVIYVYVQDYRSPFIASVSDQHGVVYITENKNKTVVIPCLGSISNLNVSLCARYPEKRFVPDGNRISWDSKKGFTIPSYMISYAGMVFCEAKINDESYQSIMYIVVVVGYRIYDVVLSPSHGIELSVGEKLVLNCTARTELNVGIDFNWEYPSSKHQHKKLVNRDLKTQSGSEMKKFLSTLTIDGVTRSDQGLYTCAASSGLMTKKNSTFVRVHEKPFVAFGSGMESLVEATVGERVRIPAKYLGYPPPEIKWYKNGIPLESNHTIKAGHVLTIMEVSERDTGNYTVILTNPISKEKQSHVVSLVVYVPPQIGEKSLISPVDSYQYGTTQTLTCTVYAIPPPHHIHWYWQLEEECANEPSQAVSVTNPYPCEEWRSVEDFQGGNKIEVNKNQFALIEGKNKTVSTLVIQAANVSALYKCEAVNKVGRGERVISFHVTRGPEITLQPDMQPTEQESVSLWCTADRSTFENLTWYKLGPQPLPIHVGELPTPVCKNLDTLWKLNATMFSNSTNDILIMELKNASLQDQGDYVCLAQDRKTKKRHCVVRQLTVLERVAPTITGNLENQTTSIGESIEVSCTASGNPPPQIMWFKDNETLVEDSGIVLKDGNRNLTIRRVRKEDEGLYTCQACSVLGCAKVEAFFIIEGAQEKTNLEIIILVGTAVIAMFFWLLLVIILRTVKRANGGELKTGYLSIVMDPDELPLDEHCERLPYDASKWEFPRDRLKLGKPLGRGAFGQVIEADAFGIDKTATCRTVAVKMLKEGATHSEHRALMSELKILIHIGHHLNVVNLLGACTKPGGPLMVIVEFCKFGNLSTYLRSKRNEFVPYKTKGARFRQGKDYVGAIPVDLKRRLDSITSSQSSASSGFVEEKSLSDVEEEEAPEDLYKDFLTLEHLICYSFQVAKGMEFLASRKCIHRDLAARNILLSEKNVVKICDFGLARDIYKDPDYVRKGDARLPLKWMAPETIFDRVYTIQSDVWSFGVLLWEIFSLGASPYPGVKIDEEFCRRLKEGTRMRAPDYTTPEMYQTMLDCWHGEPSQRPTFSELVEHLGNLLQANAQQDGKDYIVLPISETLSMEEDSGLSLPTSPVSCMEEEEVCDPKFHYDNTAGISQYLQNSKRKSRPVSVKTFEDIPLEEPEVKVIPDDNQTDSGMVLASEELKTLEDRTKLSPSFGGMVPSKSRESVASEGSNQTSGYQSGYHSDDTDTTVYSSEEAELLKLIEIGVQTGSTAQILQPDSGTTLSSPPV

Experimental findings from ChEMBL document CHEMBL5321287, “Discovery, Synthesis, and Evaluation of Novel Dual Inhibitors of a Vascular Endothelial Growth Factor Receptor and Poly(ADP-Ribose) Polymerase for BRCA Wild-Type Breast Cancer Therapy” (J Med Chem, 2023) are described below.

pIC50: −log10 of the molar value. Calls of active or inactive are those of the source. The rule behind the calls is not given here.

As a reminder, the pIC50 is the negative decadic logarithm of the IC50, by convention in mol/L. On to `Cc1ccc(Nc2nccc(N(C)c3ccc4c(C)n(C)nc4c3)n2)cc1S(N)(=O)=O` [PAZOPANIB], for which the result in assay [1], in [5], in [6], in assay [7], in assay [9] and in [10] was Active. Moreover, the outcome in [12], in assay [13], in [14], in [15] and in [16] was Active. In addition, the pIC50 in [2], in [4] and in assay [11] was below 5.00 in each case. Besides, the inhibition entry in [3] and in assay [17] was “Active” in each case. Moreover, the result in assay [8] was inactive.
